The target in this assay is T1, L-CPT1 (Homo sapiens, UniProt P50416).
T1 construct: made in house; host or cells: Pichia pastoris strain X-33
T1 sequence (P50416 1-773): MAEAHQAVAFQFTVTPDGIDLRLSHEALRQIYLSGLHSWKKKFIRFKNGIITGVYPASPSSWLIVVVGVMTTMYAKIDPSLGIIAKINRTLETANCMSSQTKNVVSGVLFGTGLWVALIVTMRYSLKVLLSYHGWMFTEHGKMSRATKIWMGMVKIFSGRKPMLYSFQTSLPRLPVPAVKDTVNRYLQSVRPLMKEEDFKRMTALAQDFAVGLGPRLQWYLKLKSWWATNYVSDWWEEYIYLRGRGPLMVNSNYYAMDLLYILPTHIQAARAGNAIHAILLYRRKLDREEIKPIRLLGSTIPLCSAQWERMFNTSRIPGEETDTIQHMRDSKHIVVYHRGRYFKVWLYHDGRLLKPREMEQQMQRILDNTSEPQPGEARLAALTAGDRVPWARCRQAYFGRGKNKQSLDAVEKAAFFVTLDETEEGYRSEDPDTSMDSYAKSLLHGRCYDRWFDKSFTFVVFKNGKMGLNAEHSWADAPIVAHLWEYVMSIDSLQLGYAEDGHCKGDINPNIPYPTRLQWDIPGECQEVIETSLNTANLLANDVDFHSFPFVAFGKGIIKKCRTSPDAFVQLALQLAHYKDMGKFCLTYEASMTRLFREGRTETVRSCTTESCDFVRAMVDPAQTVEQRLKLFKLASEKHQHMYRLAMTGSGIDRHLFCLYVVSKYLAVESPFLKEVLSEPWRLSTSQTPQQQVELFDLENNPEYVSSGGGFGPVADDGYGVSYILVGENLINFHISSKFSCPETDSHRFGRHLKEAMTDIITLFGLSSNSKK
As to the kind of experiment: L-CPT1 inhibition, spectrophotometric CPT activity assay with DTNB (Ellman's reagent). To be noted: human liver CPT1 expressed in P. pastoris, cell extracts; carnitine 500 μM, palmitoyl-CoA 80 μM, DTNB 300 μM, pH 7.4. It counts as biochemical. The protocol: The following tests were carried out in order to determine the activity of the compounds of the present invention. Background information on the performed assays can be found in: Jackson et al., 1999, Biochem. J. 341, 483-489 and Jackson et al., 2000, J. Biol. Chem. 275, 19560-19566.
Human liver and muscle CPT1 cDNAs and rat CPT2 cDNA were subcloned in pGAPZB or pGAPZA, respectively. These plasmids were used to transform P. pastoris strain X-33 via electroporation after the preparation of electrocompetent cells. High copy number clones were selected where necessary using 0.5 or 1 mg/ml Zeocin. Cultures for activity measurements were induced for 16 h in YPD medium (1% yeast extract, 2% peptone, 2% glucose). Crude cell extracts were prepared by disrupting the cells with glass beads or French Press, depending on fermenter sizes. After centrifugation, the cell-free extracts were resuspended in cell breaking buffer (50 mM Tris, pH7.4, 100 mM KCl, 1 mM EDTA) in the presence of a protease inhibitor cocktail, before aliquoting and freezing at −20° C.
CPT activity was measured using a spectrophotometric assay using 5,5′-dithio-bis-(2-nitrobenzoic acid) (DTNB) also called Ellman's reagent. The HS-CoA released on the formation of acylcarnitine from carnitine (500 μM) and palmitoyl-CoA (80 μM) reduced DTNB (300 μM) forming 5-mercapto-(2-nitrobenzoic acid) which absorbed at 410 nm with a molar coefficient extinction of 13600 M^−1·cm^−1. The assay buffer contained 120 mM KCl, 25 mM Tris, pH 7.4, 1 mM EDTA. This assay was used for the identification of selective inhibitors of the liver CPT1 isoform versus the muscle CPT1 and CPT2 isoforms.
(In Ellman's method for cholinesterases, released thiocholine reacts with DTNB.)
As usually defined, the IC50 is the concentration that inhibits the measured activity by half. The low end stands for greater potency in that assay, the high end for weaker potency in that assay. With `O=C(Nc1ccc(C(=O)O)c(Cl)c1)c1ccc2c(c1)N(S(=O)(=O)c1cccc(Cl)c1)CC2` [Example 1, 2-Chloro-4-{[1-(3-chloro-benzenesulfonyl)-2,3-dihydro-1H-indole-6-carbonyl]-amino}-benzoic acid], the IC50 came out at 160 nM.

Take `COc1ccc(Cl)cc1S(=O)(=O)N1CCc2ccc(C(=O)Nc3ccc(C(=O)O)cc3)cc21` [Example 31, 4-{[1-(5-Chloro-2-methoxy-benzenesulfonyl)-2,3-dihydro-1H-indole-6-carbonyl]-amino}-benzoic acid]: half-maximal inhibition (IC50) required 20.6 nM.

In the case of `COc1ccc(Cl)cc1S(=O)(=O)N1CCc2ccc(C(=O)Nc3ccc(C(=O)O)c(F)c3)cc21` [Example 12, 4-{[1-(5-Chloro-2-methoxy-benzenesulfonyl)-2,3-dihydro-1H-indole-6-carbonyl]-amino}-2-fluoro-benzoic acid], half-maximal inhibition (IC50) was put at 72.2 nM.

Values taken from patent US7713996B2, “Indolyl derivatives which are L-CPT1 inhibitors” (Hoffmann-La Roche Inc., priority 2005, dated 2010).
